# Key:
# [1] = test system: HCT116p53−/− (HCT116 with deleted p53 gene); assay: Cytotoxic MTS assay, HCT116p53−/−; type: cell-based, human
# Experimental: (§1) In vitro cytotoxic activity of final compounds 5–82 was evaluated after 3 days of incubation against eight cell lines derived from human solid tumors including lung (A549 cells) and colon (HCT116 and HCT116p53−/−) carcinomas, as well as leukemia cell lines (CCRF-CEM, CEM-DNR, K562, and K562-TAX) and osteosarcoma (U2OS cells). For comparison, non-malignant BJ and MRC-5 fibroblasts, and BJLD and MCR-5LD fibroblasts doxorubicin-resistant cell lines were used. Concentrations inhibiting the cell growth by 50% (IC50) were determined using a quantitative metabolic staining with 3-(4,5-dimethylthiazol-2yl)-5-(3-carboxymethoxyphenyl)-2-(4-sulfophenyl)-2H-tetrazolium (MTS) and are summarized in (Table 3).
# (§2) Cytotoxic activity was determined by MTS assay following 72 h of incubation. IC50 is the lowest concentration that kills 50% of cells. The standard deviation in cytotoxicity assays is typically up to 20% of the average value. […] The tested cell lines: A549 (lung adenocarcinoma), BJ (noncancerous human fibroblasts from foreskin), BJLD (human lung fibroblast doxorubicin-resistant), CCRF-CEM (childhood T cell acute lymphoblastic leukemia), a daunorubicin-resistant subline of CCRF-CEM cells (CEM-DNR bulk), HCT116 (colorectal carcinoma), HCT116p53−/− (HCT116 with deleted p53 gene), K562 (chronic myeloid leukemia), K562-TAX (chronic myeloid leukemia paclitaxel-resistant subline), MRC-5 (noncancerous human lung fibroblasts), MRC-5LD (noncancerous human lung fibroblasts doxorubicin-resistant), and U2OS (osteosarcoma).
# (§3) All cell lines were purchased from the American Tissue Culture Collection (ATCC). The A549 cell line is lung adenocarcinoma. MRC-5 and BJ cell lines were used as a non-tumor control and represent human fibroblasts. (MRC-5 LD and BJLD) are doxorubicin-resistant human lung fibroblast cell lines. The CCRF-CEM line is derived from T lymphoblastic leukemia, evincing high chemosensitivity, whereas K562 represent cells from an […] patient sample with bcr-abl translocation. The daunorubicin-resistant subline of CCRF-CEM cells (CEM-DNR bulk) and paclitaxel-resistant subline K562-TAX were selected in our laboratory by the cultivation of maternal cell lines in increasing concentrations of daunorubicin or paclitaxel, respectively. The CEM-DNR bulk cells overexpress MRP-1 and P-glycoprotein protein, whereas K562-TAX cells overexpress P-glycoprotein only. Both proteins belong to the family of ABC transporters and are involved in the primary and/or acquired multidrug-resistance phenomenon. The U2OS cell line is derived from osteosarcoma, HCT116 is a colorectal tumor cell line and its p53 gene knock-down counterpart (HCT116p53−/−, Horizon Discovery Ltd., Cambridge, UK) is a model of human cancers with p53 mutation frequently associated with poor prognosis. The cells were maintained in nunc/corning 80 cm^2 plastic tissue culture flasks and cultured in a cell culture medium according to ATCC or Horizon recommendations (DMEM/RPMI 1640 with 5 g/L glucose, 2 mM glutamine, 100 U/mL penicillin, […], 10% fetal calf serum, and NaHCO3).
# (§4) The activity of compounds was determined using a standard 3-(4,5-dimethylthiazol-2-yl)-5-(3-carboxymethoxyphenyl)-2-(4-sulfophenyl)-2H-tetrazolium (MTS) and it was performed at the Institute of Molecular and Translational Medicine by a robotic platform (High-ResBiosolutions). Cell suspensions were prepared and diluted according to the particular cell type and the expected target cell density (25,000–35,000 cells/mL based on cell growth characteristics). Cells were added by automatic pipettor (30 µL) into 384-well microtiter plates. All tested compounds were dissolved in 100% DMSO and four-fold dilutions of the intended test concentration were added in 0.15 µL aliquots at time zero to the microtiter plate wells by the echo acoustic non-contact liquid handler Echo550 (Labcyte). […]
# [2] = test system: CCRF-CEM (childhood T cell acute lymphoblastic leukemia); assay: Cytotoxic MTS assay, CCRF-CEM; type: cell-based, human
# Experimental: as §1, §2, §3, §4
# [3] = test system: MRC-5 (noncancerous human lung fibroblasts); assay: Cytotoxic MTS assay, MRC-5; type: cell-based
# Experimental: as §1, §2, §3, §4
# [4] = test system: BJLD (human lung fibroblast doxorubicin-resistant); assay: Cytotoxic MTS assay, BJLD; type: cell-based
# Experimental: as §1, §2, §3, §4
# [5] = test system: BJ (noncancerous human fibroblasts from foreskin); assay: Cytotoxic MTS assay, BJ; type: cell-based
# Experimental: as §1, §2, §3, §4
# [6] = test system: eight human cancer and 4 non-tumor cell lines; assay: Cytotoxic MTS assay, whole panel of tested cell lines; type: cell-based; conditions: for Selectivity for cancer cells compared against BJ and MRC-5 cells: colon, leukemia, lung and osteosarcoma cancer cell lines vs BJ and MRC-5
# Experimental: as §1, §2, §3, §4
# [7] = test system: K562 (chronic myeloid leukemia); assay: Cytotoxic MTS assay, K562; type: cell-based, human
# Experimental: as §1, §2, §3, §4
# [8] = test system: HCT116 (colorectal carcinoma); assay: Cytotoxic MTS assay, HCT116; type: cell-based, human
# Experimental: as §1, §2, §3, §4
# [9] = test system: U2OS (osteosarcoma); assay: Cytotoxic MTS assay, U2OS; type: cell-based, human
# Experimental: as §1, §2, §3, §4
# [10] = test system: CEM-DNR bulk (daunorubicin-resistant subline of CCRF-CEM cells); assay: Cytotoxic MTS assay, CEM-DNR; type: cell-based, human
# Experimental: as §1, §2, §3, §4
# [11] = test system: MRC-5LD (noncancerous human lung fibroblasts doxorubicin-resistant); assay: Cytotoxic MTS assay, MRC-5LD; type: cell-based
# Experimental: as §1, §2, §3, §4
# [12] = test system: K562-TAX (chronic myeloid leukemia paclitaxel-resistant subline); assay: Cytotoxic MTS assay, K562-TAX; type: cell-based, human
# Experimental: as §1, §2, §3, §4
# [13] = test system: A549 (lung adenocarcinoma); assay: Cytotoxic MTS assay, A549; type: cell-based, human
# Experimental: as §1, §2, §3, §4
# [14] = Cytotoxic MTS assay, whole panel of tested cell lines; type: cell-based, human; conditions: human; MTS, 72 h of incubation, all tested cell lines; read-out: Cytotoxic activity IC50, tested cell lines (considered inactive)
# Experimental: as §1, §2, §3, §4
SMILES,IC50 [1] [µM],IC50 [2] [µM],IC50 [3] [µM],IC50 [4] [µM],IC50 [5] [µM],Selectivity for cancer cells compared against BJ and MRC-5 cells [6],IC50 [7] [µM],IC50 [8] [µM],IC50 [9] [µM],IC50 [10] [µM],IC50 [11] [µM],IC50 [12] [µM],IC50 [13] [µM],Cancer cell selectivity for A549 cells compared to BJ and MRC-5 cell lines ([13]; A549 vs BJ and MRC-5),melting point [°C],IC50 at 72 h [14] [µM],Selectivity for leukemic and colorectal cancer cells compared to MRC-5 ([6]; leukemic and colorectal (with and without p53 deletion) cancer cells vs MRC-5)
"Cc1cc(C)cc(C(=O)OCCCS(=O)(=O)c2cc[n+]([O-])c3cc(Cl)ccc23)c1 [Compound 81, 3-[(N-Oxide 7-chloroquinolin-4-yl)sulfonyl]propyl-3,5-dimethylbenzoate]",4.76,1.2,46.7,25.4,32.5,most pronounced selectivity,3.78,3.46,5.67,6.63,21.9,6.26,5.32,,,,
"COc1ccc(C(=O)OCCCS(=O)(=O)c2cc[n+]([O-])c3cc(Cl)ccc23)cc1[N+](=O)[O-] [Compound 79, 3-[(N-Oxide 7-chloroquinolin-4-yl)sulfonyl]propyl-4-methoxy-3-nitrobenzoate]",4.98,1.05,20.6,12,19,good selectivity,6.09,3.81,4.95,4.49,13.8,3.73,5.79,moderate cancer cell selectivity,,,
"O=C(OCC[S+]([O-])c1ccnc2cc(Cl)ccc12)c1ccc(C(F)(F)F)cc1 (stereo not shown) [Compound 51, 2-[(7-Chloroquinolin-4-yl)sulfinyl]ethyl-4-(trifluoromethyl)benzoate]",,,,,,,,,,,,,,,148 to 150,> 50,
"COc1ccccc1C(=O)OCCC[S+]([O-])c1ccnc2cc(Cl)ccc12 (stereo not shown) [Compound 58, 3-[(7-Chloroquinolin-4-yl)sulfinyl]propyl-2-methoxybenzoate]",,,,,,,,,,,,,,,,> 50,
"COc1cc(OC)c(C(=O)OCCC[S+]([O-])c2ccnc3cc(Cl)ccc23)cc1OC (stereo not shown) [Compound 56, 3-[(7-Chloroquinolin-4-yl)sulfinyl]propyl-2,4,5-trimethoxybenzoate]",,,,,,,,,,,,,,,,> 50,
"COc1ccc(C(=O)OCCCS(=O)(=O)c2cc[n+]([O-])c3cc(Cl)ccc23)cc1 [Compound 73, 3-[(N-Oxide 7-chloroquinolin-4-yl)sulfonyl]propyl-4-methoxybenzoate]",2.24,2.18,21.9,10.7,12.4,,2.2,1.99,5.75,4.7,19,4.62,5.44,,,,good selectivity
"CC(C)(C)c1ccc(C(=O)OCC[S+]([O-])c2ccnc3cc(Cl)ccc23)cc1 (stereo not shown) [Compound 52, 2-[(7-Chloroquinolin-4-yl)sulfinyl]ethyl-4-tert-butylbenzoate]",,,,,,,,,,,,,,,106,> 50,

# — paper PMC9607427, “Novel 7-Chloro-(4-thioalkylquinoline) Derivatives: Synthesis and Antiproliferative Activity through Inducing Apoptosis and DNA/RNA Damage” (Pharmaceuticals, 2022)
